Measured values from patent US10870658B2, “Aldose reductase inhibitors and methods of use thereof” (The Trustees of Columbia University in the City of New York, priority 2016, dated 2020).
≈ marks a conversion by molar mass, not a printed value.

Experiments:
[1] = Equilibrium solubility in phosphate buffer, pH 7.4; assay type: physicochemical; conditions: aqueous buffer, thermodynamic from solid, phosphate buffer pH 7.4, shaken overnight at room temperature, LC-MS/MS
Description: Equilibrium Solubility in Phosphate Buffer, pH 7.4:
The equilibrium solubility of test articles was measured in pH 7.4 aqueous buffers. […] At least 1 mg of powder for each test article was combined with 1 mL of buffer to make a≥1 mg/mL mixture. These samples were shaken on a Thermomixer® overnight at room temperature. The samples were then centrifuged for 10 minutes at 10,000 rpm. […] Standard concentrations ranged from 1.0 μM to 1.0 nM.

physchem = conditions: octanol/phosphate buffer, pH 7.4
Description: Octanol/Buffer Partition Coefficient (Log D) at pH 7.4:
The octanol/buffer partition coefficient of three test articles was measured at pH 7.4. The pH 7.4 buffer was prepared by combining 50 mL of 0.2 M solution of KH2PO4 with 150 mL of dH2O, and then adjusting to pH 7.4 with 10 N NaOH. In a single incubation, 15 μL of a 10 mM DMSO solution of each test article (100 μM) was added to test tubes which contained 0.75 mL of octanol and 0.75 mL of pH 7.4 phosphate buffer. Testosterone was also introduced to each tube as an internal control, also at a dosing concentration of 100 μM. These samples were gently mixed on a benchtop rotator for 1 hour at room temperature. The tubes were then removed from the rotator and the aqueous and organic phases were allowed to separate for 1 hour. An aliquot of the organic layer was taken and diluted 200-fold into a mixture of 1:1 buffer:acetonitrile (ACN). An aliquot of the aqueous layer was taken and diluted 2-fold, 10-fold, and 200-fold into a mixture of 1:1 buffer:ACN. All samples were assayed by LC-MS/MS using electrospray ionization.

Aldose Reductase = Aldose Reductase (Homo sapiens, UniProt P15121); experiment: Aldose reductase enzymatic inhibition (micro plate assay, D-glyceraldehyde and NADPH, absorbance at 340 nm); assay type: biochemical; conditions: D-glyceraldehyde and NADPH as substrate; 0.1 nm to 10 uM
Description: Aldose Reductase Enzymatic Inhibition:
All compounds and Zopolrestat were tested individually in a micro plate assay for AR inhibition using D-glyceraldehyde and NADPH as substrate and the absorbance changes at 340 nm was monitored. % Inhibition was calculated for ARIs at concentration ranging 0.1 nm to 10 uM.

[2] = positive control, octanol/buffer pH 7.4; cited from earlier work

SMILES | melting point [°C] | solubility [1] [µg/mL] | logD (physchem) | IC50 (Aldose Reductase) [nM] | Log D (published/known) [2]
O=C(O)Cc1nn(Cc2nc3cc(C(F)(F)F)ccc3s2)c(=O)c2c(Cl)sc(Cl)c12 [Compound VII, 2-(5,7-dichloro-4-oxo-3-((5-(trifluoromethyl)benzo[d]thiazol-2-yl)methyl)-3,4-dihydrothieno[3,4-d]pyridazin-1-yl)acetic acid] | 205 to 207 | – | – | – | –
O=C(O)Cc1nn(Cc2nc3cc(C(F)(F)F)ccc3s2)c(=O)c2cscc12 [Compound XII, 2-(4-oxo-3-((5-(trifluoromethyl)benzo[d]thiazol-2-yl)methyl)-3,4-dihydrothieno[3,4-d]pyridazin-1-yl)acetic acid] | – | 970 (≈ 2280 µM) | -0.09 | – | –
O=C(O)Cc1nn(Cc2nc3cc(F)ccc3s2)c(=O)c2cscc12 [Compound XIV, 2-(3-((5-fluorobenzo[d]thiazol-2-yl)methyl)-4-oxo-3,4-dihydrothieno[3,4-d]pyridazin-1-yl)acetic acid] | 172 to 173 | 650 (≈ 1730 µM) | -0.87 | 60 | –
O=C(O)Cc1nn(Cc2nc3ccccc3s2)c(=O)c2cscc12 [Compound XVI, 2-(3-(benzo[d]thiazol-2-ylmethyl)-4-oxo-3,4-dihydrothieno[3,4-d]pyridazin-1-yl)acetic acid] | 172 to 173 | – | – | – | –
O=C(O)Cc1nn(Cc2nc3cc(Cl)ccc3s2)c(=O)c2cscc12 [Compound XX, 2-(3-((5-chlorobenzo[d]thiazol-2-yl)methyl)-4-oxo-3,4-dihydrothieno[3,4-d]pyridazin-1-yl)acetic acid] | 184 to 185 | 590 (≈ 1510 µM) | -0.35 | 35 | –
CC(C)(C)OC(=O)Cc1nn(Cc2cc3cc(Cl)ccc3o2)c(=O)c2cscc12 [Compound XXIII, tert-butyl 2-(3-((5-chlorobenzofuran-2-yl)methyl)-4-oxo-3,4-dihydrothieno[3,4-d]pyridazin-1-yl)acetate] | 117 to 118 | – | – | – | –
O=C(O)Cc1nn(Cc2cc3cc(Cl)ccc3o2)c(=O)c2cscc12 [Compound XXIV, 2-(3-((5-chlorobenzofuran-2-yl)methyl)-4-oxo-3,4-dihydrothieno[3,4-d]pyridazin-1-yl)acetic acid] | 154 to 155 | – | – | – | –
O=C(O)Cc1nn(Cc2cc3ccccc3o2)c(=O)c2cscc12 [Compound XXVI, 2-(3-(benzofuran-2-ylmethyl)-4-oxo-3,4-dihydrothieno[3,4-d]pyridazin-1-yl)acetic acid] | 158 to 159 | 790 (≈ 2320 µM) | -0.86 | 57 | –
C[C@]12CC[C@H]3[C@@H](CCC4=CC(=O)CC[C@@]43C)[C@@H]1CC[C@@H]2O [Testosterone] | – | – | – | – | 3.0-3.4
